Data reported in ChEMBL document CHEMBL1201862, “PubChem BioAssay data set” (2004).
Active and inactive are the calls of the source.

Legend:
Large T antigen = Large T antigen (Simian virus 40, UniProt P03070); type: functional, Betapolyomavirus macacae;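 also: Confirmatory-stage PubChem screen for compounds that inhibit SV40 T antigen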
[1] = growth suppression of beta-catenin-knockout colon cells, dose response, cell-based, HCT116, human colon tumor (AID 1045); type: functional;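 also: HCT116 colon tumor cells with beta catenin knocked out; cells exposed to compound for 60 hours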
[2] = growth suppression of PTEN-null colon cells, dose response, cell-based, HCT116 PTEN knockout (AID 1047); type: functional;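 also: HCT116 colon tumor cells with PTEN knocked out; cells exposed to compound for 60 hours before readout; potency for loss of cell viability measured by luminescence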
[3] = off-target signal loss in HeLa-CEM21 co-culture – HeLa F-luc CTL cells, cherry-picked, counter-screen for HIV-1 Env fusion inhibitor project, dose response (AID 652040); type: functional, cell-based;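 also: potency for signal decrease marking cytotoxic or nonspecific inhibition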
[4] = inhibitors of HIV Env-driven cell fusion, dose response, cherry-pick (AID 652057); type: functional, cell-based
[5] = target: T1, High affinity choline transporter 1 (Homo sapiens, UniProt Q9GZV3); test: CHT inhibitors, dose response, cell-based, 5-point CRC, membrane potential dye (AID 504840); type: functional
T1 sequence (Q9GZV3 whole entry): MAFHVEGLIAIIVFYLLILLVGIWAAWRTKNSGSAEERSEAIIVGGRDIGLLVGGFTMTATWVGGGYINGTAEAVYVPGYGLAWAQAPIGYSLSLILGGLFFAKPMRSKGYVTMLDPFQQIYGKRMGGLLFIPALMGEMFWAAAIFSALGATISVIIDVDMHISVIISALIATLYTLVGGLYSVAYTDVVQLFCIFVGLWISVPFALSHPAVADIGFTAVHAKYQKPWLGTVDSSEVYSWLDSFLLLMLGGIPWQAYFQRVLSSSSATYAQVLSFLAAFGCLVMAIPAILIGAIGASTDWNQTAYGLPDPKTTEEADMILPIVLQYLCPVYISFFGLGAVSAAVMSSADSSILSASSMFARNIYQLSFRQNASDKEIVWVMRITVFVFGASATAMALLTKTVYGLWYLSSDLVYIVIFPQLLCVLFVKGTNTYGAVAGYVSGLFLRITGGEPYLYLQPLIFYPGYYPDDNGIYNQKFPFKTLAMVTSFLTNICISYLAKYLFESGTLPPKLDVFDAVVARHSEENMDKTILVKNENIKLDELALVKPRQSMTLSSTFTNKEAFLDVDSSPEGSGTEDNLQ

[6] = target: T2, Carboxy-terminal domain RNA polymerase II polypeptide A small phosphatase 1 (Homo sapiens, UniProt Q9GZU7); test: inhibitors of CTDSP1, concentration-response testing, biochemical assay, absorbance-based, actives from ultra-high-throughput screening (AID 540297); type: functional
T2 sequence (Q9GZU7 whole entry): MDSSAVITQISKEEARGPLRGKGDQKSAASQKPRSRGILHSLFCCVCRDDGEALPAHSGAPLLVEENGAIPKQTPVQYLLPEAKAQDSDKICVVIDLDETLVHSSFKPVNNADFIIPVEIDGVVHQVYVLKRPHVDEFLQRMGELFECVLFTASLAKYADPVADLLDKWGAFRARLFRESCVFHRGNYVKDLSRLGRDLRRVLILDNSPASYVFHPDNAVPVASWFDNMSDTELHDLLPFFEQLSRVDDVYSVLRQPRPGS

[7] = HEp-2 cell cytotoxicity, dose response, cytotoxicity control for RSV inhibitor project, HTS (AID 2410); type: functional; conditions: human respiratory syncytial virus
[8] = target: FAD-linked sulfhydryl oxidase ALR (Homo sapiens, UniProt P55789); test: inhibitors of human ALR sulfhydryl oxidase, dose response, biochemical, H2O2 detection, luminescence, cherry-pick (AID 493248)
[9] = target: T3, Rac GTPase-activating protein 1 (Homo sapiens, UniProt Q9H0H5); test: MgcRacGAP GTPase-activating activity inhibitors, confirmation, biochemical, ADP Hunter fluorescence, primary and confirmatory (AID 624330); type: functional
T3 sequence (Q9H0H5 whole entry): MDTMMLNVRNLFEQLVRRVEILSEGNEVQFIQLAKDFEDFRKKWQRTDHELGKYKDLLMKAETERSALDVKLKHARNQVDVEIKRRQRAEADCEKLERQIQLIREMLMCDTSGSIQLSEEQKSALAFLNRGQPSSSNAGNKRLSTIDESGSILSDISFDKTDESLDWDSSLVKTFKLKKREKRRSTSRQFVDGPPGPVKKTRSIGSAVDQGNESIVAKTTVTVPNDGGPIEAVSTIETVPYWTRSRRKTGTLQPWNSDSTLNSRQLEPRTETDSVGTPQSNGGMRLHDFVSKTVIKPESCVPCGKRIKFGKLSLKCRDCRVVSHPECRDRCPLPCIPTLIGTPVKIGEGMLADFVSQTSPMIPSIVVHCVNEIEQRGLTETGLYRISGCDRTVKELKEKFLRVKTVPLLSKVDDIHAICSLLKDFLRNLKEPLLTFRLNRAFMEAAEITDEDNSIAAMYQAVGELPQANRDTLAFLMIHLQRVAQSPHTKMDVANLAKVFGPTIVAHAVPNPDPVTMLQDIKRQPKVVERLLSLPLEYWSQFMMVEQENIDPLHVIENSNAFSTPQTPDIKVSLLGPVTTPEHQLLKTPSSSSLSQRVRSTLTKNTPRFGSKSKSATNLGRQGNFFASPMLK

Paired box protein Pax-8 = Paired box protein Pax-8 (Homo sapiens, UniProt Q06710); test: inhibitors of PAX8-driven TPO luciferase reporter, dose response, RMG-I cells, cherry-pick (AID 687027); type: functional, cell-based;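 also: luciferase reporter driven by Pax8 target thyroperoxidase promoter measured by SteadyGlo luminescence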
[10] = target: T4, RNA-binding protein pos-1 (Caenorhabditis elegans, UniProt G5EF15); test: inhibitors of POS-1/mex-3 RNA binding, dose response, biochemical, fluorescence polarization (AID 1964);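 also: purified POS-1 fused to maltose binding protein made in E. coli; potency of compounds blocking POS-1 binding to fluorescent RNA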
T4 sequence (G5EF15 whole entry): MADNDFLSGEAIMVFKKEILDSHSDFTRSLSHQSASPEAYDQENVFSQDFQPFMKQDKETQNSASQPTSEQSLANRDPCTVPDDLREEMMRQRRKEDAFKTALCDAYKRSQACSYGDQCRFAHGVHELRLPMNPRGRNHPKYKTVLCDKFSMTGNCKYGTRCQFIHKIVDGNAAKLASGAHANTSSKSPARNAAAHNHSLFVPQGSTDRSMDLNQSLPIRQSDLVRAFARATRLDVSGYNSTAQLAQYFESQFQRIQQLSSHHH

[11] = target: Induced myeloid leukemia cell differentiation protein Mcl-1 (Homo sapiens, UniProt Q07820); type: functional
[12] = target: T5, Zinc finger protein mex-5 (Caenorhabditis elegans, UniProt Q9XUB2); test: MEX-5/TCR-2 RNA interaction inhibitors, dose response, biochemical, C. elegans, fluorescence polarization (AID 1960)
T5 sequence (Q9XUB2 whole entry): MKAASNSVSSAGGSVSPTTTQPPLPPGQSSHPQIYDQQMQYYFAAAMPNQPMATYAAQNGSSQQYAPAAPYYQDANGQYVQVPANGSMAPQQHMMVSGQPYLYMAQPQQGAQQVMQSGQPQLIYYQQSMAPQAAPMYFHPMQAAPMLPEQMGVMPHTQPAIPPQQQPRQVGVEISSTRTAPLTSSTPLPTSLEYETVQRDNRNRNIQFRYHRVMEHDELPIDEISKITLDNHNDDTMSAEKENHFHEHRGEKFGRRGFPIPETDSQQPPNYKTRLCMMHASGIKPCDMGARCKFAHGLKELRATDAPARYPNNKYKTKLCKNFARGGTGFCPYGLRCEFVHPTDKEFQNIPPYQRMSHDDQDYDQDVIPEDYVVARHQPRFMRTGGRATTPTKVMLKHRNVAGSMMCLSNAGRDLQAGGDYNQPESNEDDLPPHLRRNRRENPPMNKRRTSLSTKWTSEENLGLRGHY

[13] = target: Heat shock protein HSP 90-alpha (Homo sapiens, UniProt P07900); type: functional, organism-based
[14] = target: T6, Calpain-2 catalytic subunit (Sus scrofa, UniProt P43367); test: pig calpain II inhibitor potency, dose response, biochemical, fluorogenic peptide substrate (AID 1420); type: functional
T6 sequence (P43367 whole entry): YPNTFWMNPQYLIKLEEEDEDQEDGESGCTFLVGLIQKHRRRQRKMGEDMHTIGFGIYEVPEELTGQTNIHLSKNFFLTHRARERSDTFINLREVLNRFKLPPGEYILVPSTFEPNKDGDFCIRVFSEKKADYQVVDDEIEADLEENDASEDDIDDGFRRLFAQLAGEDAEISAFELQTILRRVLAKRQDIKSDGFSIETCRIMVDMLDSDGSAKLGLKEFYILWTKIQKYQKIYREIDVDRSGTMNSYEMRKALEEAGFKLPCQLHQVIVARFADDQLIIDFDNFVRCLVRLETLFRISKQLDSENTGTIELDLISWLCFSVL

Chain of FAD-linked sulfhydryl oxidase ALR (P55789 whole entry): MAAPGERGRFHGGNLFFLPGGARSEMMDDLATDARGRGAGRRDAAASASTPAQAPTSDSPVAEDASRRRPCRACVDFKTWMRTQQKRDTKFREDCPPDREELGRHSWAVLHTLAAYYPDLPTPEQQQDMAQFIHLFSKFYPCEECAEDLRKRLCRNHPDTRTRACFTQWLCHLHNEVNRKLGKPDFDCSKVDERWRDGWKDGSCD
Chain of Paired box protein Pax-8 (Q06710 whole entry, the tested form may be a part): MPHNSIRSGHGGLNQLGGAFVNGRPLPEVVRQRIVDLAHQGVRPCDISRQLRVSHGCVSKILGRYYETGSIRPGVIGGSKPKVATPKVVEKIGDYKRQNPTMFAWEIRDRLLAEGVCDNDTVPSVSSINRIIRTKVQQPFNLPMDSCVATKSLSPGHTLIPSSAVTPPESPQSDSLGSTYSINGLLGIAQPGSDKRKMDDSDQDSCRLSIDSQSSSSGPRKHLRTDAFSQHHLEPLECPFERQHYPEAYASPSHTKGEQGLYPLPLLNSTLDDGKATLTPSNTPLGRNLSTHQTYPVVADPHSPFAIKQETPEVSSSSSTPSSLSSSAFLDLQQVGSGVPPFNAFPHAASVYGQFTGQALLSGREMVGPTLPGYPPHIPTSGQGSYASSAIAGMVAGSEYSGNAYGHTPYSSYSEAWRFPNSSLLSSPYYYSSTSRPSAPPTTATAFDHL
Chain of Induced myeloid leukemia cell differentiation protein Mcl-1 (Q07820 whole entry): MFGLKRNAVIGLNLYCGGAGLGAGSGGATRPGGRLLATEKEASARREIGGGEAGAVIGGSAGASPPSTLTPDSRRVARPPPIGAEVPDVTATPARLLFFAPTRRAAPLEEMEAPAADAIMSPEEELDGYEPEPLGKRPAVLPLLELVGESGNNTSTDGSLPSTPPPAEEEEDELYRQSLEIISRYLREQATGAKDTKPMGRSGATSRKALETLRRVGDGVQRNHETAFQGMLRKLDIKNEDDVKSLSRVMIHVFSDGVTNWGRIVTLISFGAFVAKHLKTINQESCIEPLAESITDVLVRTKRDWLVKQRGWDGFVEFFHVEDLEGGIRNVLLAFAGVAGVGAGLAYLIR
Chain of Large T antigen (P03070 whole entry): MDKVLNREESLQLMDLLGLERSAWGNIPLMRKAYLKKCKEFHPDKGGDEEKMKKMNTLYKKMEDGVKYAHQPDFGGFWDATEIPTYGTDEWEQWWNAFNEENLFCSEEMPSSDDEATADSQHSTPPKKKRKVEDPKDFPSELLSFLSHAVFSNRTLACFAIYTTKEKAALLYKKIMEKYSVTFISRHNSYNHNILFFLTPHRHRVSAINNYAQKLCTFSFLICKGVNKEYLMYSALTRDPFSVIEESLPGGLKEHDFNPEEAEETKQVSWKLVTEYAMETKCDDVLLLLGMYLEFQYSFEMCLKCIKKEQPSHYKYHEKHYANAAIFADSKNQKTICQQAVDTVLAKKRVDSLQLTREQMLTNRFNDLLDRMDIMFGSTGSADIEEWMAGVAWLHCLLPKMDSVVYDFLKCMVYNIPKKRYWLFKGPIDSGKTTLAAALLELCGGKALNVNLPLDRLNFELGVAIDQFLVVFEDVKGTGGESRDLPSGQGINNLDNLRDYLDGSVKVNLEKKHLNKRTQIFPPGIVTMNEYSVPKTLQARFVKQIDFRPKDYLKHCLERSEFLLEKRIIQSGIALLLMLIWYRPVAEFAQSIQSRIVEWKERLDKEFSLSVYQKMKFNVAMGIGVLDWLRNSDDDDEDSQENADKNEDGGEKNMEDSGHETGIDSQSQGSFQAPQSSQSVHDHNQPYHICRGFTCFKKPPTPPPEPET

## CSc1nc(Cl)cc(Nc2ccc(O)cc2)n1
Large T antigen
  IC50: 17.8 µM (active)

## CCN(CC(=O)Nc1c(C(=O)OC)[nH]c2ccc(Cl)cc12)c1ccc2c(c1)OCO2
[1]
  EC50: 27.7 µM (active)
[2]
  EC50: 19.4 µM (active)

## CC(NC(=O)c1ccccc1NC(=O)CN1CCc2ccccc2C1)c1ccccc1 (stereo unspecified)
[3]
  AC50: 49.2 µM (active)
[4]
  AC50: 9.12 µM (active)

## Cc1ccc(C(=O)O)cc1NC(=S)NC(=O)c1ccc(COc2ccccc2)cc1
[5]
  IC50: 15.5 µM (active)
[6]
  IC50: 6.25 µM (active)

## CCOC(=O)c1cn(-c2nc(-c3ccc(Cl)c(Cl)c3)cs2)c2c(F)c(N3CCOCC3)c(F)cc2c1=O
[1]
  EC50: 18.6 µM (active)
[7]
  CC50: 28.4 µM (active)
[2]
  EC50: 8.96 µM (active)

## N=c1sccn1CC(=O)Nc1ccc(SC(F)F)cc1
[8]
  AC50: 1.68 µM (active)

## O=C(CCn1cnc2ccccc21)N/N=C/c1ccc(O)cc1
[9]
  IC50: 51.6 µM (active)
Large T antigen
  IC50: 14.2 µM (active)

## COc1ccc(NC(=O)Nc2ccc3c(c2)C(=O)N([C@@H](C)CO)C[C@@H](C)[C@@H](CN(C)Cc2ccc(C(F)(F)F)cc2)OCCCC[C@@H](C)O3)cc1
Paired box protein Pax-8
  AC50: 8.18 µM (active)

## Cc1ccc(-c2nnc(S)n2/N=C/c2c(C)nn(-c3ccccc3)c2O)cc1
[8]
  AC50: 13.5 µM (active)

## Cc1ccc(-c2csc(NC(=O)c3cccc(C)c3)c2C(=O)O)cc1
[5]
  IC50: 11.8 µM (active)

## O=C(C[C@H]1CC[C@H]2[C@@H](COC[C@@H](O)CN2Cc2ccc(Oc3ccccc3)cc2)O1)N1CCCCC1
Paired box protein Pax-8
  AC50: 15 µM (active)

## CC(NC(=O)C1CC1)C(c1cccs1)N1CCN(c2ccccc2)CC1 (stereo unspecified)
[8]
  AC50: 0.362 µM (active)

## O=C1NC(=O)N(c2ccccc2)C(=O)/C1=C\c1ccc2c3c(cccc13)CC2
[10]
  EC50: > 300 µM (not active)
[11]
  IC50: 5.04 µM (active)
[12]
  EC50: > 300 µM (not active)
Large T antigen
  IC50: 68.4 µM (active)

## COc1ccc(C(=O)NNS(=O)(=O)c2ccc(OC)cc2)cc1
[8]
  AC50: 12.7 µM (active)

## COc1cc(C(=O)NC2CC(C)(C)CC(C)(C)C2)ccc1OC1CCN(C(C)=O)CC1
[5]
  IC50: 13.8 µM (active)

## O=C(CC(n1cncn1)C(Cl)(Cl)Cl)c1ccc([N+](=O)[O-])cc1 (stereo unspecified)
[13]
  AC50: 4.15 µM (active)

## c1ccc(CCNc2c3c(nc4ncnn24)CCC3)cc1
[5]
  IC50: 10.1 µM (active)

## CC[C@@H](C)[C@H](NC(=O)Cc1c(C)c2cc3c(C)coc3c(C)c2oc1=O)C(=O)O
[8]
  AC50: 2.39 µM (active)

## COc1ccc(NC(=O)C(Sc2nnc(-c3ccncc3)n2-c2ccccc2C)c2ccccc2)cc1Cl (stereo unspecified)
Paired box protein Pax-8
  AC50: 15.5 µM (active)

## CCOC(=O)c1sc(NC(=O)CCN2C(=O)c3cccc([N+](=O)[O-])c3C2=O)c(C(=O)OCC)c1C
[5]
  IC50: 5.98 µM (active)

## COC(=O)Nc1ccc(S(=O)(=O)Nc2ccc(O)cc2)cc1
[8]
  AC50: 1.38 µM (active)

## C=C(C)CSc1nnc(CCCCCNC(=O)OC(C)(C)C)o1
[5]
  IC50: 6.92 µM (active)

## COCCn1/c(=N/C(=O)c2sc3ccccc3c2Cl)sc2cc(S(N)(=O)=O)ccc21
[1]
  EC50: 22.5 µM (active)
[2]
  EC50: 23.2 µM (active)

## CCOc1ccc(-n2c(SCC(=O)Nc3cc(C)on3)nc3c4ccccc4nc-3c2O)cc1
[1]
  EC50: 28.6 µM (active)
[2]
  EC50: 28.4 µM (active)

## Cc1ccc2nc(N(CCCN(C)C)C(=O)CCc3ccccc3)sc2c1
[1]
  EC50: 16.6 µM (active)
[2]
  EC50: 16.6 µM (active)

## Nc1ccc2c(c1)-c1ccccc1S(=O)(=O)N2
[10]
  EC50: > 300 µM (not active)
[12]
  EC50: 12.2 µM (active)
Large T antigen
  IC50: 3.99 µM (active)

## Cc1ccc(OCCN2CCN(CC(O)Cn3c4ccccc4c4ccccc43)CC2)cc1 (stereo unspecified)
[1]
  EC50: 10.9 µM (active)
[2]
  EC50: 13.6 µM (active)

## S=C(NCC1CCCO1)Nc1cc(Cl)c(Cl)cc1Cl (stereo unspecified)
[5]
  IC50: 14.5 µM (active)

## O=C1C=CC(=O)N1c1ccc2ccccc2c1
[13]
  AC50: 0.832 µM (active)

## COc1ccc(C2=CC3=C(Br)C(=O)C(C)(OC(=O)c4ccc(Cl)nc4)C(=O)C3=CO2)cc1 (stereo unspecified)
[10]
  EC50: > 300 µM (not active)
[12]
  EC50: > 300 µM (not active)
Large T antigen
  IC50: 56.7 µM (active)

## CC1(C)CC(=O)C(/C=N/c2ccc(O)cc2)=C(O)C1
[9]
  IC50: 17 µM (active)
Large T antigen
  IC50: 5.53 µM (active)

## CC1CCCCC12NC(=O)N(CC(=O)Nc1ccc(S(=O)(=O)Nc3ncccn3)cc1)C2=O (stereo unspecified)
[8]
  AC50: 6.47 µM (active)

## Cc1ccc(NC(=O)CN2C(=O)/C(=C3\SC(=S)N(C4CCS(=O)(=O)C4)C3=O)c3ccccc32)cc1 (stereo unspecified)
[14]
  IC50: 9.72 µM (not active)
[11]
  IC50: 24.1 µM (active)

## COc1ccc2nc(SCC(=O)Nc3ccc4sc(C)nc4c3)c(C#N)cc2c1
[1]
  EC50: 20 µM (active)
[2]
  EC50: 21.3 µM (active)

## CN(C)c1ccc(NC(=O)Cn2ncn3c(cc4ccccc43)c2=O)cc1
[11]
  IC50: 3.14 µM (active)
Large T antigen
  IC50: 29.6 µM (active)
